Test results: article PMC4929566, “The metabolome of [2-^14C](−)-epicatechin in humans: implications for the assessment of efficacy, safety, and mechanisms of action of polyphenolic bioactives” (Scientific Reports, 2016)
Like-named read-outs stand apart in the source and are kept apart here.

What was measured:
[1] = Metabolite profiling and quantification in urine (HPLC-MS2 with on-line radioactivity detector); assay type: in vivo, humans; settings: human, oral 207 μmol 14C-EC, mean ± SEM n=8; for Metabolite present in urine, collection period 4–8 h / Metabolite present in urine, collection period 8–12 h / Metabolite present in urine, collection period 12–24 h / Metabolite present in urine, collection period 0–4 h / Metabolite present in urine, collection period 24–48 h: – = not detected
Method: (§1) The study was a single-center, open-label, and non-randomized study with two distinct elements: a run-in phase to establish a more defined dietary background of dietary flavanols and procyanidins and the subsequent ^14C-EC ADME study (Fig. 1B). Participants (n = 12) were enrolled in the run-in phase (day –17 to day –4) and asked to supplement their daily diet for 14 days with a commercially available flavanol-containing cocoa-based drink (250 mg cocoa flavanols; 40 mg of EC). This was followed by a 4-day period (day –4 to 0) of a low-flavanol diet. One day (study day -1) prior to the initialization of the ^14C-EC ADME study, all eligible participants were accommodated under controlled conditions at a metabolic research facility (Covance Clinical Pharmacology Inc., Wisconsin) until completion of the study. Based on the compliance of the first part of the study, 8 participants were selected to participate in the ^14C-EC ADME study. During the ^14C-EC ADME study (Fig. 1B.), volunteers received a low-flavanol, standardized high-fiber diet, and were encouraged to maintain an adequate level of hydration (water ad libitum). Volunteers were asked to fast for 8 h before the initiation of the study and for at least 4 h after the intake of the ^14C-EC test drink (water ad libitum). Venous blood samples were taken using Vacutainer collection tubes, containing potassium EDTA at 0 h (just prior to ^14C-EC ingestion), and at 0.25, 0.5, 1, 1.5, 2, 2.5, 3, 4, 6, 8, 10, 12, 16, 24, 36, and 48 h after test drink consumption. Plasma was obtained by whole blood centrifugation at 2000 × g for 15 min at 5 °C, separated into aliquots and stored at −80 °C until analysis. All urine and feces from the time just prior to the consumption of the test drink were collected at different time intervals for radioactivity and metabolite profiling. Clinical parameters and laboratory evaluations of participants were assessed at screening, on study day –1, and after completing the study, as detailed in Supplementary Methods.
(§2) Samples were processed as described previously[18] and analyzed by HPLC-MS^2 in conjunction with an on-line HPLC-radioactivity monitor as described in SI Materials and Methods. Identification of metabolites involved comparing the retention time with authentic standards and MS^2 fragmentation patterns (Supplementary Methods). Quantification of metabolites in urine was based on HPLC radioactivity peak area (limit of quantification: 10^3 dpm). Due to the low levels of radioactivity, quantification in plasma was based on targeted HPLC-MS^2 using standard curves obtained with authentic standards (Supplementary Methods).
HPLC-MS identifications of radiolabeled [2-14C](−)-epicatechin metabolites in urine Urine was analyzed with radioactivity and mass spectrometry (MS) detection using a 250 mm x 4.6 mm i.d. 5 µm Luna Phenyl-Hexyl column (Phenomenex, Macclesfield, UK) […]
formic acid. Metabolite identification was performed by 1) co-chromatography of metabolites with reference compounds and a comparison of their MS fragmentation patterns 2, 2) by comparing m/z fragmentation patterns with earlier in-house observed […]
patterns to databases of metabolites reported in earlier polyphenol feeding studies5-7.
Supplementary Table S2, which also provides information on the MSI MI (Metabolite Standards Initiative – Metabolites Identification) level, a confidence level for identification where level 1 stands for fully elucidated (i.e., by comparison with a standard) and level 2 for a well characterized, but not yet fully structurally elucidated 8

[2] = Metabolite profiling and pharmacokinetics in plasma (targeted HPLC-MS2); assay type: in vivo, humans; settings: for Identification as human EC metabolite: human plasma and urine, radiolabeled tracer
Method: as §1, §2
Data are expressed as mean values ± standard error, or as otherwise specified. Pharmacokinetic parameters were calculated using non-compartmental analysis with WinNonlin (Pharsight Corporation, Version 5.2).
5-20% acetonitrile in 0.1 % formic acid. Supplementary Table S2 provides details of HPLC retention times and the m/z values that were monitored.
Supplementary Table S2. Detection of (−)-epicatechin metabolites. HPLC retention times and selected reaction monitoring ions used for the HPLC-MS analysis of (−)-epicatechin metabolites in plasma. […]
Structurally related (-)-epicatechin metabolites in humans: assessment using de novo chemically synthesized authentic standards. Free Radic Biol Med 52, 1403- […]
3 Borges, G. et al. Bioavailability of multiple components following acute ingestion of a polyphenol-rich juice drink. Mol Nutr Food Res 54 Suppl 2, S268-277, […]
4 Stalmach, A. et al. Absorption, metabolism, and excretion of green tea flavan-3-ols in humans with an ileostomy. Mol Nutr Food Res 54, 323-334,

[3] = human plasma, oral 60 mg 14C-EC, mean ± SEM n=8

Row | Compound | Metabolite present in urine, collection period 0–48 h [1] [μ mol] | Metabolite present in urine, collection period 4–8 h [1] [μ mol] | Metabolite present in urine, collection period 8–12 h [1] [μ mol] | Metabolite present in urine, collection period 12–24 h [1] [μ mol] | AUC0-24h [2, 3] [µM·h] | Cmax [2, 3] [nM] | T1/2 (elimination half-life) [2, 3] [h] | Tmax [2, 3] [h] | further results
1 | O=C(O)CCC(O)Cc1ccc(O[C@@H]2O[C@H](C(=O)O)[C@@H](O)[C@H](O)[C@H]2O)c(O)c1 (some centres unmarked) [5-(3′-Hydroxyphenyl)-γ-hydroxyvaleric acid-4′-O-glucuronide] | 2.3 ± 0.7 | 1.3 ± 0.5 | 0.5 ± 0.3 | 0.5 ± 0.1 | 0.835 ± 0.355 | 54 ± 14 | 6.5 ± 0.8 | 4.9 ± 1.3 | 
2 | 5-(Phenyl)-γ-valerolactone-O-sulfate-O-glucuronide |  |  |  |  | 1.02 ± 0.481 | 39 ± 9 | 6.4 ± 2.2 | 5.5 ± 1.1 | 
3 | COc1cc([C@H]2Oc3cc(OS(=O)(=O)O)cc(O)c3C[C@H]2O)ccc1O [3′-O-Methyl-(−)-epicatechin-7-sulfate, 3′-O-methyl-(−)-epicatechin-7-sulfate] | 1.2 ± 0.3 | 0.3 ± 0.1 |  |  | 1.03 ± 0.26 | 159 ± 20 | 2.4 ± 0.2 | 1.1 ± 0.1 | Metabolite present in urine, collection period 0–4 h [1]: 0.9 ± 0.2 μ mol
4 | O=C(O)CNC(=O)c1cccc(O)c1 [3′-Hydroxyhippuric acid] | 16.9 ± 5.8 | 1.6 ± 0.5 | 2.8 ± 0.7 | 7.0 ± 2.9 |  |  |  |  | Metabolite present in urine, collection period 24–48 h [1]: 5.5 ± 2.3 μ mol
5 | O=C1CCC(Cc2cccc(OS(=O)(=O)O)c2)O1 (centres unmarked) [5-(Phenyl)-γ-valerolactone-3′-sulfate] | 4.7 ± 2.7 | 2.4 ± 1.1 | 1.2 ± 0.9 | 1.0 ± 0.8 |  |  |  |  | Metabolite present in urine, collection period 0–4 h [1]: 0.1 ± 0.1 μ mol
6 | O=C1CCC(Cc2ccc(O[C@@H]3O[C@H](C(=O)O)[C@@H](O)[C@H](O)[C@H]3O)c(O)c2)O1 (some centres unmarked) [5-(3′-Hydroxyphenyl)-γ-valerolactone-4′-O-glucuronide] |  |  |  |  | 1.33 ± 0.396 | 52 ± 9 | 4.4 ± 1.3 | 6.1 ± 0.8 | 
7 | O=C(O)[C@H]1O[C@@H](Oc2ccc([C@H]3Oc4cc(O)cc(O)c4C[C@H]3O)cc2O)[C@H](O)[C@@H](O)[C@@H]1O [(−)-epicatechin-4′-β-D-glucuronide, reference compound] |  |  |  |  |  |  |  |  | Identification as human EC metabolite [2]: could not be identified by us
8 | O=C1CCC(Cc2ccc(O)c(O[C@@H]3O[C@H](C(=O)O)[C@@H](O)[C@H](O)[C@H]3O)c2)O1 (some centres unmarked) [5-(4′-Hydroxyphenyl)-γ-valerolactone-3′-O-glucuronide] |  |  |  |  |  |  |  |  | Cmax ([2]; male, human plasma, oral 60 mg 14C-EC, mean ± SEM n=8): 125 ± 30 nM; AUC(0-t) ([2]; male, human plasma, oral 60 mg 14C-EC, mean ± SEM n=8, read-out: AUC0-24h): 1.91 ± 0.787 µM·h; half-life ([2]; male, human plasma, oral 60 mg 14C-EC, mean ± SEM n=8, read-out: T1/2 (elimination half-life) (converted)): 3.1 ± 0.6 h; Tmax ([2]; male, human plasma, oral 60 mg 14C-EC, mean ± SEM n=8, read-out: Tmax): 6.8 ± 0.8 h
9 | Hydroxyphenylacetic acid-sulfate | 2.9 ± 1.1 | 0.9 ± 0.5 | 0.8 ± 0.6 | 1.2 ± 0.4 |  |  |  |  | 
10 | O=C(O)CNC(=O)c1ccccc1 [Hippuric acid] | 26.4 ± 7.1 | 7.2 ± 3.9 | 5.6 ± 2.6 | 7.1 ± 2.1 |  |  |  |  | Metabolite present in urine, collection period 0–4 h [1]: 0.6 ± 0.4 μ mol; Metabolite present in urine, collection period 24–48 h [1]: 5.9 ± 4.1 μ mol
11 | COc1cc([C@H]2Oc3cc(O[C@@H]4O[C@H](C(=O)O)[C@@H](O)[C@H](O)[C@H]4O)cc(O)c3C[C@H]2O)ccc1O [3′-O-methyl(−)-epicatechin-7-O-β-D-glucuronide] |  |  |  |  | 0.077 ± 0.031 | 39 ± 5 | 1.3 ± 0.3 | 0.9 ± 0.1 | 
12 | O=C(O)CCC(O)Cc1cccc(OS(=O)(=O)O)c1 (centres unmarked) [5-(Phenyl)-4-hydroxyvaleric acid-3′-sulfate] | 2.9 ± 1.6 | 1.9 ± 1.0 | 0.3 ± 0.2 | 0.7 ± 0.7 |  |  |  |  | 
13 | O=S(=O)(O)Oc1cc(O)c2c(c1)O[C@H](c1ccc(O)c(O)c1)[C@H](O)C2 [(−)-Epicatechin-7-sulfate] |  |  |  |  | 0.043 ± 0.016 | 19 ± 3 | 2.2 ± 0.4 | 1.1 ± 0.2 | 
14 | O=C(O)[C@H]1O[C@@H](Oc2cc(O)c3c(c2)O[C@H](c2ccc(O)c(O)c2)[C@H](O)C3)[C@H](O)[C@@H](O)[C@@H]1O [(−)-Epicatechin-7-O-glucuronide, (−)-epicatechin-7-O-β-D-glucuronide] |  |  |  |  | 0.045 ± 0.014 | 22 ± 7 | 1.7 ± 0.3 | 0.8 ± 0.1 | 
15 | O=S(=O)(O)Oc1ccc([C@H]2Oc3cc(O)cc(O)c3C[C@H]2O)cc1O [(−)-epicatechin-4′-sulfate, reference compound] |  |  |  |  |  |  |  |  | Identification as human EC metabolite [2]: could not be identified by us
16 | COc1cc([C@H]2Oc3cc(O)cc(O[C@@H]4O[C@H](C(=O)O)[C@@H](O)[C@H](O)[C@H]4O)c3C[C@H]2O)ccc1O [3′-O-methyl(−)-epicatechin-5-O-β-D-glucuronide] |  |  |  |  | 0.025 ± 0.01 | 23 ± 5 | 1.3 ± 0.2 | 0.8 ± 0.2 | Relative amount (% of total) of individual SREM in plasma ([2]; human, 1 h post 14C-EC intake, Fig. 4A): < 3%
17 | 5-(Hydroxyphenyl)-γ-hydroxyvaleric acid-sulfate |  |  |  |  | 1.49 ± 0.475 | 56 ± 9 | 7.6 ± 3.5 | 5.9 ± 0.6 | 
